Where a name gives a salt, the structure may show the parent alone.
Experiments:
[1] = test system: Monosodium Iodoacetate-Induced Osteoarthritis in Rat; test: MIA Rat: hind-paw weight distribution; format: in vivo; conditions: for % Inhibition (of cartilage damage, hind-paw weight distribution): 14 days, Day 14; for preventing or treating cartilage damage (conclusion from Table 5): MIA Rat, doses and routes of Table 5
Source text: One end result of the induction of osteoarthritis in this model, as determined by histologic analysis, is the development of an osteoarthritic condition within the affected joint, as characterized by the loss of Toluidine blue staining and formation of osteophytes. Associated with the histologic changes is a concentration-dependent degradation of joint cartilage, as evidenced by affects on hind-paw weight distribution of the limb containing the affected joint, the presence of increased amounts of proteoglycan or hydroxyproline in the joint upon biochemical analysis, or histopathological analysis of the osteoarthritic lesions.
In the MIA Rat model on Day 0, the hind-paw weight differential between the right arthritic joint and the left healthy joint of male Wistar rats (150 g) were determined with an incapacitance tester, model 2KG (Linton Instrumentation, Norfolk, United Kingdom). The incapacitance tester has a chamber on top with an outwardly sloping front wall that supports a rat's front limbs, and two weight sensing pads, one for each hind paw, that facilitates this determination. Then the rats were anesthetized with isofluorine, and the right, hind leg knee joint was injected with 1.0 mg of mono-iodoacetate (“MIA”) through the infrapatellar ligament. […] The rats were further administered either a GABA analog or vehicle (in the instant case, water) daily for 14 days. The GABA analog was typically administered at a dose of 30 mg of GABA analog per kilogram of rat per day (30 mg/kg/day), but may be administered at other doses such as, for example, 10 mg/kg/day, 60 mg/kg/day, or 100 mg/kg/day according to the requirements of the compound being studied. It is well within the level of ordinary skill in the pharmaceutical arts to determine a proper dosage of a GABA analog in this model. In the instant experiment, administration of the GABA analog was optionally by oral administration or intravenous administration via an osmotic pump. After 7 and 14 days, the hind-paw weight distribution was again determined. […] Percent inhibition of cartilage damage was calculated as the percent change in hind-paw weight distribution for treated animals versus control animals:
[formula] wherein: ΔWC is the hind-paw weight differential between the healthy left limb and the arthritic limb of the control animal administered vehicle alone, as measured on Day 14; and • ΔWG is the hind-paw weight differential between the healthy left limb and the arthritic limb of the animal administered a GABA analog, as measured on Day 14.
The results of the hind-paw weight distribution data are shown below in Table 5 in the column labelled “% Inhibition”.

[2] = test system: Experimental Osteoarthritis in Rabbit; test: EOA in Rabbit: histological grading of synovial membrane; format: in vivo; conditions: 150 mg/kg/po/day, 8 weeks after surgery, mean ± SEM
Method: (§1) Normal rabbits were anaesthetized and anteromedial incisions of the right knees performed. The anterior cruciate ligaments were visualized and sectioned. The wounds were closed and the animals were housed in individual cages, exercised, and fed ad libitum. Rabbits were given either vehicle (water), gabapentin, or 3-(1-aminomethyl-cyclohexylmethyl)-4h-[1,2,4]oxadiazol-5-one hydrochloride (10 rabbits per group). Each group was dosed three times per day with the gabapentin group receiving 100-mg/kg/dose and the 3-(1-aminomethyl-cyclohexylmethyl)-4h-[1,2,4]oxadiazol-5-one hydrochloride group receiving 50-mg/kg/dose. The rabbits were euthanized 8 weeks after surgery and the proximal end of the tibia and the distal end of the femur were removed from each animal.
Representative specimens of synovial membrane from the medial and lateral knee compartments were dissected from underlying tissues. The specimens were fixed, embedded, and sectioned (5 um) as above, and stained with hematoxylin-eosin. For each compartment, two synovial membrane specimens were examined for scoring purposes and the highest score from each compartment was retained. The average was calculated and considered as a unit for the whole knee. The severity of synovitis was graded on a scale of 0 to 10 by two independent observers, adding the scores of 3 histologic criteria: synovial lining cell hyperplasia (scale 0–2); villous hyperplasia (scale 0–3); and degree of cellular infiltration by mononuclear and polymorphonuclear cells (scale 0–5): 0 indicates normal structure.
(§2) Mean values and SEM was calculated and statistical analysis was done using the Mann-Whitney U-test.

[3] = test system: Monosodium Iodoacetate-Induced Osteoarthritis in Rat; test: MIA Rat: free proteoglycan in knee joint; format: in vivo; conditions: for treatment of cartilage damage (conclusion from Table 6): MIA Rat, osmotic pump 30 mg/kg/day; for Proteoglycan loss (%) / Inhibition of Proteoglycan loss (%): intravenously by osmotic pump 30 mg/kg/day; for Proteoglycan loss (%): osteoarthritic right knee joint vs contralateral left knee joint, vehicle 18.10 (1b) and 31.90 (2b); for Inhibition of Proteoglycan loss (%): versus vehicle (water)
Source text: The incapacitance tester has a chamber on top with an outwardly sloping front wall that supports a rat's front limbs, and two weight sensing pads, one for each hind paw, that facilitates this determination. […] The rats were further administered either a GABA analog or vehicle (in the instant case, water) daily for 14 days. […] It is well within the level of ordinary skill in the pharmaceutical arts to determine a proper dosage of a GABA analog in this model. In the instant experiment, administration of the GABA analog was optionally by oral administration or intravenous administration via an osmotic pump. After 7 and 14 days, the hind-paw weight distribution was again determined. […] Percent inhibition of cartilage damage was calculated as the percent change in hind-paw weight distribution for treated animals versus control animals: In order to measure biochemical or histopathological end points in the MIA Rat model, some of the animals in the above study were then sacrificed, and the amounts of free proteoglycan in both the osteoarthritic right knee joint and the contralateral left knee joint were determined by biochemical analysis. The amount of free proteoglycan in the contralateral left knee joint provides a baseline value for the amount of free proteoglycan in a healthy joint. The amount of proteoglycan in the osteoarthritic right knee joint in animals further administered a GABA analog, and the amount of proteoglycan in the osteoarthritic right knee joint in animals further administered vehicle alone, were independently compared to the amount of proteoglycan in the contralateral left knee joint. The amounts of proteoglycan lost in the osteoarthritic right knee joints were expressed as percent loss of proteoglycan compared to the contralateral left knee joint control. The results are shown below in Table 6 in the column labelled, “Proteoglycan loss (%)”. Also shown in Table 6, in the column labelled “Inhibition of Proteoglycan loss (%)”, is the percent inhibition of proteoglycan loss, which was calculated as {[(proteoglycan loss from joint (%) with vehicle)−(proteoglycan loss from joint with GABA analog)]÷(proteoglycan loss from joint (%) with vehicle)}×100.

[4] = test system: Experimental Osteoarthritis in Rabbit; test: EOA in Rabbit: histologic grading of cartilage lesions (Mankin scale); format: in vivo; conditions: for Cells (0–3) / Safranin-O Staining (0–4) / Structure (0–6) / Total (0–13): 150 mg/kg/po/day, 8 weeks after surgery, mean ± SEM
Method: as §1
Histologic evaluation was performed on sagittal sections of cartilage from the lesional areas of the femoral condyle and tibial plateau. Serial sections (5 um) were prepared and stained with safranin-O. The severity of OA lesions was graded on a scale of 0–14 by two independent observers using the histologic-histochemical scale of Mankin et al. This scale evaluates the severity of OA lesions based on the loss of safranin-O staining (scale 0–4), cellular changes (scale 0–3), invasion of tidemark by blood vessels (scale 0–1) and structural changes (scale 0–6). On this latter scale, 0 indicates normal cartilage structure and 6 indicates erosion of the cartilage down to the subchondral bone. The scoring system was based on the most severe histologic changes in the multiple sections.
as §2

[5] = test system: Experimental Osteoarthritis in Rabbit; test: EOA in Rabbit: macroscopic grading of cartilage lesions; format: in vivo
Method: as §1
The cartilage changes on the femoral condyles and tibial plateaus were graded separately under a dissecting microscope (Stereozoom, Bausch & Lomb, Rochester, N.Y.). The depth of erosion was graded on a scale of 0 to 4 as follows: grade 0=normal surface; Grade 1=minimal fibrillation or a slight yellowish discoloration of the surface; Grade 2=erosion extending into superficial or middle layers only; Grade 3=erosion extending into deep layers; Grade 4=erosion extending to subchondral bone. The surface area changes was measured and expressed in mm^2. Representative specimens will also be used for histologic grading (see below).
as §2

[6] = 30 mg/kg oral, twice daily dosing of the indicated dose
[7] = daily dose 30 mg/kg, osmotic pump
[8] = 50 mg/kg/dose three times per day, 8 weeks, Table 1

SMILES: CS(=O)(=O)NCCC1(CN)CCCCC1.Cl
- melting point: 196 to 199 °C

SMILES: CC(C)CC(CN)Cc1noc(=S)[nH]1.Cl (stereo not drawn)
- melting point: 183 to 185 °C

SMILES: Cl.NCC1(Cc2noc(=S)[nH]2)CCCCC1
- melting point: 210 to 212 °C

SMILES: CCCC(C(C)C)C(CN)CC(=O)O (stereo not drawn) (as salt: HCl)
- melting point: 160 to 170 °C

SMILES: Cl.NCC1(Cc2noc(=O)[nH]2)CCCCC1 [3-(1-Aminomethyl-cyclohexylmethyl)-4H-[1,2,4]oxadiazol-5-one; hydrochloride]
- % Inhibition (of cartilage damage, hind-paw weight distribution) [1, 6]: 47 ± 20%
- preventing or treating cartilage damage (conclusion from Table 5) [1]: effective
- % Inhibition (of cartilage damage, hind-paw weight distribution) [1, 7]: 46 ± 10%
- Cellular Infiltration (0–5 Scale) [2]: 0.35 ± 0.2
- Synovial Lining (0–2 Scale) [2]: 0.85 ± 0.1
- Villous Hyperplasia (0–3 Scale) ([2]; p < 0.001): 1.15 ± 0.1
- Total (0–10) ([2]; p < 0.002): 2.35 ± 0.3
- treatment of cartilage damage (conclusion from Table 6) [3]: effective
- Proteoglycan loss (%) [3]: 6.70%
- Inhibition of Proteoglycan loss (%) [3]: 63%
- histologic damage (in words) ([4]; 50 mg/kg/dose three times per day, 8 weeks, text on Table 2 and 3): reduced histologic damage
- Cells (0–3) ([4]; Femoral Condyles): 1.60 ± 0.2
- Safranin-O Staining (0–4) ([4]; Femoral Condyles): 1.25 ± 0.3
- Structure (0–6) ([4]; Femoral Condyles, p < 0.01): 1.35 ± 0.3
- Total (0–13) ([4]; Femoral Condyles, p < 0.04): 4.20 ± 0.6
- Cells (0–3) ([4]; Tibial Plateaus): 0.60 ± 0.2
- Safranin-O Staining (0–4) ([4]; Tibial Plateaus): 0.18 ± 0.1
- Structure (0–6) ([4]; Tibial Plateaus): 0.90 ± 0.2
- Total (0–13) ([4]; Tibial Plateaus, p > 0.02): 1.77 ± 0.4
- damage score for both the femoral condyles and the tibial plateaus (in words) [5, 8]: reduced
- lesion size on the plateaus (in words) [5, 8]: reduced
- Femoral Condyles Size ([5]; 150 mg/kg/po/day (50 mg/kg/dose three times per day), 8 weeks after surgery, mean ± SEM): 6.93 ± 3.1 mm^2
- Tibial Plateaus Size ([5]; 150 mg/kg/po/day (50 mg/kg/dose three times per day), 8 weeks after surgery, mean ± SEM, p < 0.002): 1.95 ± 0.8 mm^2
- Tibial Plateaus Grade (0–4) ([5]; 150 mg/kg/po/day (50 mg/kg/dose three times per day), 8 weeks after surgery, mean ± SEM, p < 0.02): 0.55 ± 0.2
- Femoral Condyles Grade (0–4) ([5]; 150 mg/kg/po/day (50 mg/kg/dose three times per day), 8 weeks after surgery, mean ± SEM, p < 0.04): 0.67 ± 0.2
- treatment of cartilage damage (conclusion from the EOA in Rabbit study) ([5]; gabapentin 100 mg/kg/dose, test compound 50 mg/kg/dose, three times per day, 8 weeks): effective

SMILES: Cl.NCC1(Cc2noc(=O)[nH]2)CCCCCC1 [3-(1-aminomethyl-cycloheptylmethyl)-4H-[1,2,4]oxadiazol-5-one hydrochloride]
- preventing or treating cartilage damage (conclusion from Table 5) [1]: effective
- % Inhibition (of cartilage damage, hind-paw weight distribution) [1, 7]: 62 ± 8%

SMILES: CC(C)CC(CN)Cc1noc(=O)[nH]1.Cl (stereo not drawn) [3-(2-Aminomethyl-4-methyl-pentyl)-4H-[1,2,4]oxadiazole-5-one; HCl]
- preventing or treating cartilage damage (conclusion from Table 5) [1]: effective
- % Inhibition (of cartilage damage, hind-paw weight distribution) [1, 7]: 35 ± 8%

SMILES: Cl.NCC(c1noc(=O)[nH]1)C1CCCC1 (stereo not drawn) [3-(2-amino-1-cyclopentyl-ethyl)-4H-[1,2,4]oxadiazol-5-one hydrochloride]
- preventing or treating cartilage damage (conclusion from Table 5) [1]: effective
- % Inhibition (of cartilage damage, hind-paw weight distribution) [1, 7]: 104%

SMILES: Cl.NCC1(CC(=O)O)CC2CCC2C1 (stereo not drawn) [(1α,3α,5α)(3-Aminomethyl-bicyclo[3.2.0]hept-3-yl)-acetic acid hydrochloride]
- % Inhibition (of cartilage damage, hind-paw weight distribution) [1, 7]: −3 ± 34%
- treatment of cartilage damage (conclusion from Table 6) [3]: effective
- Proteoglycan loss (%) [3]: 16.60%
- Inhibition of Proteoglycan loss (%) [3]: 48%

SMILES: NCC1(Cc2nnn[nH]2)CCCCCC1 [C-[1-(1H-tetrazol-5-ylmethyl)-cycloheptyl]-methylamine]
- % Inhibition (of cartilage damage, hind-paw weight distribution) [1, 7]: −33 ± 17%

SMILES: CC(C)C[C@H](CN)CC(=O)O [Pregabalin, (S)-3-(aminomethyl)-5-methylhexanoic acid, reference compound]
- % Inhibition (of cartilage damage, hind-paw weight distribution) [1, 6]: −3 ± 12%

Reference: patent US7189747B2, “Method of treating noninflammatory cartilage damage” (Warner-Lambert Company, priority 2000, dated 2007)
